Assay results from article PMC12337661, “PIEZO1 mechanical insensitivity in generalized lymphatic dysplasia with the potential for pharmacological rescue” (iScience, 2025).

Key:
[1] = Mouse plasma protein binding; type: in vitro ADME
Protocol: Aqueous solubility, mouse microsomal stability and mouse plasma protein binding assays were performed by Malvern Panalytical (UK) as previously described.[29]

E829V hPIEZO1 = molecular target: T1, E829V hPIEZO1 (Homo sapiens, UniProt Q92508, E829V); assay: Intracellular Ca2+ measurement (fura-2), T-REx-293 cells transiently transfected; type: cell-based; settings: 1 μM Y1, versus WT
T1 construct: expressed in transfected cells; host or cells: T-REx-293 (modified HEK293), transient
Protocol: (§1) HEK 293 cell line was transiently transfected at 90% confluence using Lipofectamine 2000 (Invitrogen) in OptiMEM (Gibco). Briefly: 500 ng endotoxin-free DNA per 100μL OptiMEM was prepared alongside 3μL Lipofectamine 2000 per 100μL OptiMEM (Gibco). Both were incubated for 5 min and then mixed, and then incubated at room temperature (21°C–24°C) for 20–30 min. Finally, the transfection mix was gently added dropwise to the cells and the cells were placed in a humidified incubator at 37°C supplied with 5% CO2 for 5 h. Medium was replaced afterward, and cells were used for experimentation 48 h after transfection.
(§2) For intracellular Ca^2+ assays, cells were plated at 80–90% confluence in 96-well plates 24 h prior to recordings (6–8 × 10^4 cells per well). […] Cells were washed with SBS and incubated at room temperature for 20 min prior to recordings. Equal volumes of 2x concentrated compounds were injected to test for acute channel activation. Pre-incubation with compounds occurred during the 20 min prior to recordings. To expose cell membranes to hypo-osmolality, an equal volume of hypotonic SBS (containing only 35 mM NaCl) was injected onto the cells. Measurements were made on a fluorescence plate reader (Flexstation III, Molecular Devices) at room temperature (21 ± 2°C). Fura-2 was excited at 340 nm and 380 nm and emitted light collected at 510 nm, with measurements shown as the change in fluorescence (F) ratio (ΔF340/380).
(§3) KC41 (Dooku1) was prepared as described.[28] All purchased chemicals and solvents were used without further purification unless otherwise stated. All compounds were at least 95% pure by 1H NMR. 1H Nuclear Magnetic Resonance spectra were recorded at 500 MHz using a Bruker DRX 500 instrument or at 400 MHz using a Bruker DPX 400. 1H spectra are referenced based on the residual proton in the solvent (e.g., the CHCl3, 0.01% in 99.99% CDCl3). Coupling constants (J) are reported to the nearest 0.1 Hz. 13C NMR spectra were recorded at 125 MHz on 500 MHz spectrometers or at 100 MHz on 400 MHz spectrometers. LC-MS was performed on a Bruker Daltronics running a gradient of increasing acetonitrile (5–95%) in H2O both containing 0.1% formic acid at 1 mL.min^−1, on a short path C18 reverse phase column, detecting compounds with both a diode array detector and a Bruker mass spectrum analyser. HRMS was performed on a Bruker Daltonics micrOTOF using positive electrospray ionisation (ES+). Automated column chromatograph was carried out using a Biotage Isolera Four, using either Sfär Silica D or KP-Silica cartridges. HPLC was performed on an Agilent 1290 Infinity Series equipped with a UV detector and Hyperprep C18 reverse phase column. Key to NMR abbreviations: s (singlet), br s (broad singlet) d (doublet), dd (doublet of doublets), ddd (doublet of doublets of doublets), t (triplet), dt (doublet of triples), q (quartet), m (multiplet), ap. t (apparent triplet). For experiments, Yoda1 and its analogues were prepared as 10 mM stock solutions in 100% dimethyl sulfoxide (DMSO) before serial dilution in DMSO and final dilution in aqueous solution. Cells were exposed to 0.1% DMSO for all concentrations of the compounds from 0 to 10 μM.

G1978D hPIEZO1 = molecular target: T2, G1978D hPIEZO1 (Homo sapiens, UniProt Q92508, G1978D); assay: as above; type: cell-based; settings: 1 μM Y1, versus WT
T2 construct: expressed in transfected cells; host or cells: T-REx-293 (modified HEK293), transient
Protocol: as §1, §2, §3

I2270T hPIEZO1 = molecular target: T3, I2270T hPIEZO1 (Homo sapiens, UniProt Q92508, I2270T); assay: as above; type: cell-based
T3 construct: expressed in transfected cells; host or cells: T-REx-293 (modified HEK293), transient
Protocol: as §1, §2, §3

R2335Q hPIEZO1 = molecular target: T4, R2335Q hPIEZO1 (Homo sapiens, UniProt Q92508, R2335Q); assay: as above; type: cell-based; settings: 1 μM Y1, versus WT
T4 construct: expressed in transfected cells; host or cells: T-REx-293 (modified HEK293), transient
Protocol: as §1, §2, §3

WT hPIEZO1 = molecular target: T5, WT hPIEZO1 (Homo sapiens, UniProt Q92508); assay: as above; type: cell-based; settings: 1 μM
T5 construct: expressed in transfected cells; host or cells: T-REx-293 (modified HEK293), transient
Protocol: as §1, §2, §3

T3 sequence (Q92508 whole entry I2270T): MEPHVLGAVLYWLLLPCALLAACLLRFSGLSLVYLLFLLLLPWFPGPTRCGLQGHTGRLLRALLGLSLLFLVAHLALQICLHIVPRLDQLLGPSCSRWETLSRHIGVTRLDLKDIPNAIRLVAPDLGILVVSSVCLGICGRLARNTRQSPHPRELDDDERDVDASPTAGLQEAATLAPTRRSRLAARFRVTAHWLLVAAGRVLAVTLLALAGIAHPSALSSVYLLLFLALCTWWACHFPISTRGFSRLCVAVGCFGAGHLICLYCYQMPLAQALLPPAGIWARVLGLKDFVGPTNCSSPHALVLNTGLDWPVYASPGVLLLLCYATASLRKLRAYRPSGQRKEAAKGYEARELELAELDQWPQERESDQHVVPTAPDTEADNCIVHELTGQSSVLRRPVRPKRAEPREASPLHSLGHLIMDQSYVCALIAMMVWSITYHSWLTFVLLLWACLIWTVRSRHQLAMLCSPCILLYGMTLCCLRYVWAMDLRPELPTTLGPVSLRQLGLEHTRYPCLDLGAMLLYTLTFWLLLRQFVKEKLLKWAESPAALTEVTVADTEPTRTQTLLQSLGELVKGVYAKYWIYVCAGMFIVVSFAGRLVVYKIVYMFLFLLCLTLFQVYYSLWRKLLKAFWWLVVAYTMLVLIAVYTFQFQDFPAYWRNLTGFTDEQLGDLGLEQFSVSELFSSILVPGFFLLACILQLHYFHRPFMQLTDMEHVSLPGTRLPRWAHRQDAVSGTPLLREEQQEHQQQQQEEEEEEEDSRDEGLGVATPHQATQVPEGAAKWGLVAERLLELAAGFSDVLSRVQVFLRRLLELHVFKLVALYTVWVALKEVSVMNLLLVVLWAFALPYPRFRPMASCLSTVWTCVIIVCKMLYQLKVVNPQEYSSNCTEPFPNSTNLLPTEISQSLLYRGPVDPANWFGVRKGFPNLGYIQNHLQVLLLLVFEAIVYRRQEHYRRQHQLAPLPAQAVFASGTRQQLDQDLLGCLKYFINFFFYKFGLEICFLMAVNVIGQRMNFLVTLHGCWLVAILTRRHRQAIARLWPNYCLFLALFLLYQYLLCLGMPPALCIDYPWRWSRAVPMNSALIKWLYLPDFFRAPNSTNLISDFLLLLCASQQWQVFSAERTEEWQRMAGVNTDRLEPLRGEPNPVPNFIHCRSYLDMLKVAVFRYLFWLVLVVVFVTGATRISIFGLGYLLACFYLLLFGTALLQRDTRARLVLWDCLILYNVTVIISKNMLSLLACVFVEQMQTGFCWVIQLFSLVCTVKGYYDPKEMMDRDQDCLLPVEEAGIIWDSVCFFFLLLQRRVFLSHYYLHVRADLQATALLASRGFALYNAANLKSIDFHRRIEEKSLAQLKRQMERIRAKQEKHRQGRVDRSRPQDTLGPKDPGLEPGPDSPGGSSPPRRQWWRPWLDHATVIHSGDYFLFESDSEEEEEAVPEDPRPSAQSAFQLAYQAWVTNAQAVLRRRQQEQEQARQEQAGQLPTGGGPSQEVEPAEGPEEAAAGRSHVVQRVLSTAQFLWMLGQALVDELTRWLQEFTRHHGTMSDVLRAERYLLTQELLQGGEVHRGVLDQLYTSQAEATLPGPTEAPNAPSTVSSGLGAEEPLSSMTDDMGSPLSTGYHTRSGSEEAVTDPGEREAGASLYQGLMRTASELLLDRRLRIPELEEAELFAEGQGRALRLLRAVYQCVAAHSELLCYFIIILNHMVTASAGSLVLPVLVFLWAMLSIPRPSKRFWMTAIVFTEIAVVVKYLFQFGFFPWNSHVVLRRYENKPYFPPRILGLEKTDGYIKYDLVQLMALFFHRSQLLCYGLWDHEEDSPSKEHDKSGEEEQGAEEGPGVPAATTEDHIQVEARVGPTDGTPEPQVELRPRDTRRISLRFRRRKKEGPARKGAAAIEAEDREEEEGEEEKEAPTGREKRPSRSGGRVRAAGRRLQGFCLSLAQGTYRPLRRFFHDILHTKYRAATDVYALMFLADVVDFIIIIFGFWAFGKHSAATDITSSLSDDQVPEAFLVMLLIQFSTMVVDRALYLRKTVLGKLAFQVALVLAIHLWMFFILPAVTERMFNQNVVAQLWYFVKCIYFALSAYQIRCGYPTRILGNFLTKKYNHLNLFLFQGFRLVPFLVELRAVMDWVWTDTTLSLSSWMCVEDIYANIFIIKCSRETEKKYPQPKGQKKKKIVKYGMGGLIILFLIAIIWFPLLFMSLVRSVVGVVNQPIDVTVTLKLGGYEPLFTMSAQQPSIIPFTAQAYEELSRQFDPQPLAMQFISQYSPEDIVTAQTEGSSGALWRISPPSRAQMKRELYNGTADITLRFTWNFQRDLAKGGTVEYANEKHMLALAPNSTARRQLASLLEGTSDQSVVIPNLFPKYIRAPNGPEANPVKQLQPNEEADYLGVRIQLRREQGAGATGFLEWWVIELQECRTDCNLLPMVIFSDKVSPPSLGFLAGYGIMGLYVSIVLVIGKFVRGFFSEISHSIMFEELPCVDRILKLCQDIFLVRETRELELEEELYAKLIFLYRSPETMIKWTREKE
T5 sequence (Q92508 whole entry): as the sequence (Q92508 whole entry I2270T) above, with T2270I counted along it
T1 sequence (Q92508 whole entry E829V): as the sequence (Q92508 whole entry I2270T) above, with E829V, T2270I counted along it
T4 sequence (Q92508 whole entry R2335Q): as the sequence (Q92508 whole entry I2270T) above, with T2270I, R2335Q counted along it
T2 sequence (Q92508 whole entry G1978D): as the sequence (Q92508 whole entry I2270T) above, with G1978D, T2270I counted along it

O=C(O)c1ccc(-c2cnc(SCc3c(Cl)cccc3Cl)s2)cc1 [Yoda2b, 4-(2-([(2,6-Dichlorophenyl)methyl]sulfanyl)-1,3-thiazol-5-yl)benzoic acid]
unbound to mouse plasma proteins [1]: 0.4%

Clc1cccc(Cl)c1CSc1nnc(-c2cnccn2)s1 [Yoda1]
Effect on hPIEZO1 channel function (E829V hPIEZO1): reduced 1 μM Y1 effect
Effect on hPIEZO1 channel function (G1978D hPIEZO1): reduced 1 μM Y1 effect
Effect on hPIEZO1 channel function (I2270T hPIEZO1; 1 μM Y1, versus WT): loss of MA: LOF; reduced 1 μM Y1 effect
Ca2+ signal 30-60 s after application, normalized to WT, vector control subtracted, Mean (I2270T hPIEZO1; 1 μM, n = 4): 0.1013
fluorescence (ΔFratio) (I2270T hPIEZO1; 1 μM, time 0 s): 6.26E-04
fluorescence (ΔFratio) (I2270T hPIEZO1; 1 μM, time 5 s): -0.00991
fluorescence (ΔFratio) (I2270T hPIEZO1; 1 μM, time 10 s): -0.00857
fluorescence (ΔFratio) (I2270T hPIEZO1; 1 μM, time 15 s): 0.00155
fluorescence (ΔFratio) (I2270T hPIEZO1; 1 μM, time 20 s): 0.00344
fluorescence (ΔFratio) (I2270T hPIEZO1; 1 μM, time 25 s): 0.01286
fluorescence (ΔFratio) (I2270T hPIEZO1; 1 μM, time 30 s): -0.01023
fluorescence (ΔFratio) (I2270T hPIEZO1; 1 μM, time 35 s): -0.00138
fluorescence (ΔFratio) (I2270T hPIEZO1; 1 μM, time 40 s): 0.07241
fluorescence (ΔFratio) (I2270T hPIEZO1; 1 μM, time 45 s): 0.05056
fluorescence (ΔFratio) (I2270T hPIEZO1; 1 μM, time 50 s): 0.06632
fluorescence (ΔFratio) (I2270T hPIEZO1; 1 μM, time 55 s): 0.05818
fluorescence (ΔFratio) (I2270T hPIEZO1; 1 μM, time 60 s): 0.06863
fluorescence (ΔFratio) (I2270T hPIEZO1; 1 μM, time 65 s): 0.05602
fluorescence (ΔFratio) (I2270T hPIEZO1; 1 μM, time 70 s): 0.06799
fluorescence (ΔFratio) (I2270T hPIEZO1; 1 μM, time 75 s): 0.05186
fluorescence (ΔFratio) (I2270T hPIEZO1; 1 μM, time 80 s): 0.04949
fluorescence (ΔFratio) (I2270T hPIEZO1; 1 μM, time 85 s): 0.05597
fluorescence (ΔFratio) (I2270T hPIEZO1; 1 μM, time 90 s): 0.06467
fluorescence (ΔFratio) (I2270T hPIEZO1; 1 μM, time 95 s): 0.02814
fluorescence (ΔFratio) (I2270T hPIEZO1; 1 μM, time 100 s): 0.04731
fluorescence (ΔFratio) (I2270T hPIEZO1; 1 μM, time 105 s): 0.04051
fluorescence (ΔFratio) (I2270T hPIEZO1; 1 μM, time 110 s): 0.04381
fluorescence (ΔFratio) (I2270T hPIEZO1; 1 μM, time 115 s): 0.05647
fluorescence (ΔFratio) (I2270T hPIEZO1; 1 μM, time 120 s): 0.06513
fluorescence (ΔFratio) (I2270T hPIEZO1; 1 μM, time 125 s): 0.04171
Effect on hPIEZO1 channel function (R2335Q hPIEZO1): reduced 1 μM Y1 effect
fluorescence (ΔFratio) (WT hPIEZO1; time 0 s): -0.01302
fluorescence (ΔFratio) (WT hPIEZO1; time 5 s): -0.00371
fluorescence (ΔFratio) (WT hPIEZO1; time 10 s): 0.00261
fluorescence (ΔFratio) (WT hPIEZO1; time 15 s): 0.01821
fluorescence (ΔFratio) (WT hPIEZO1; time 20 s): -9.97E-05
fluorescence (ΔFratio) (WT hPIEZO1; time 25 s): -0.004
fluorescence (ΔFratio) (WT hPIEZO1; time 30 s): -0.05053
fluorescence (ΔFratio) (WT hPIEZO1; time 35 s): 0.02247
fluorescence (ΔFratio) (WT hPIEZO1; time 40 s): 0.1718
fluorescence (ΔFratio) (WT hPIEZO1; time 45 s): 0.1972
fluorescence (ΔFratio) (WT hPIEZO1; time 50 s): 0.2136
fluorescence (ΔFratio) (WT hPIEZO1; time 55 s): 0.2004
fluorescence (ΔFratio) (WT hPIEZO1; time 60 s): 0.1986
fluorescence (ΔFratio) (WT hPIEZO1; time 65 s): 0.1996
fluorescence (ΔFratio) (WT hPIEZO1; time 70 s): 0.1871
fluorescence (ΔFratio) (WT hPIEZO1; time 75 s): 0.1803
fluorescence (ΔFratio) (WT hPIEZO1; time 80 s): 0.1839
fluorescence (ΔFratio) (WT hPIEZO1; time 85 s): 0.1791
fluorescence (ΔFratio) (WT hPIEZO1; time 90 s): 0.1817
fluorescence (ΔFratio) (WT hPIEZO1; time 95 s): 0.1659
fluorescence (ΔFratio) (WT hPIEZO1; time 100 s): 0.1565
fluorescence (ΔFratio) (WT hPIEZO1; time 105 s): 0.1608
fluorescence (ΔFratio) (WT hPIEZO1; time 110 s): 0.1552
fluorescence (ΔFratio) (WT hPIEZO1; time 115 s): 0.1355
fluorescence (ΔFratio) (WT hPIEZO1; time 120 s): 0.1385
fluorescence (ΔFratio) (WT hPIEZO1; time 125 s): 0.172
